Measured values: ChEMBL document CHEMBL1201862, “PubChem BioAssay data set” (2004)
The source made the active and inactive calls.

Key:
[1] = target: Nuclear receptor subfamily 5 group A member 2 (Homo sapiens, UniProt O00482); type: functional, cell-based;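 also: HEK293T cells transfected with LRH-1 and a StAR promoter luciferase reporter; potency for inhibitors that lower LRH-1 driven reporter light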
Steroidogenic factor 1 = Steroidogenic factor 1 (Homo sapiens, UniProt Q13285); assay: Counterscreen for inverse agonists of the liver receptor homolog-1 (LRH-1; NR5A2): Luminescence-based cell-based high throughput dose response assay to identify inverse agonists of the Steroidogenic Factor 1 Nuclear Receptor (SF1; NR5A1).; type: functional
Sequence of Steroidogenic factor 1 (Q13285 whole entry): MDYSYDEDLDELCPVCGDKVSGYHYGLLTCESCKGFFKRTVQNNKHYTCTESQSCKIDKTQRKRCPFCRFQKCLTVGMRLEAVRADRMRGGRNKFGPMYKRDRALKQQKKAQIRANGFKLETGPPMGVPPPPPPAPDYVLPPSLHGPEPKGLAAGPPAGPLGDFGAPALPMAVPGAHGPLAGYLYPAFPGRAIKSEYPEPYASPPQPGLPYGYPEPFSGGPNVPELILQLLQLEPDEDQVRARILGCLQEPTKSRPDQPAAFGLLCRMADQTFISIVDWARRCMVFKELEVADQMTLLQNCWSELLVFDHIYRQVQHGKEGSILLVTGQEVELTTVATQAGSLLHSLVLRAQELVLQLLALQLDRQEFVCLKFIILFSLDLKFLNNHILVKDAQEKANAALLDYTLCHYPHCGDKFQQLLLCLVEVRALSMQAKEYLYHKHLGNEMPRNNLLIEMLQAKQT

[2] = StAR promoter reporter inhibition counter-screen, dose response, counter-screen for LRH-1 inverse agonist project, cell-based, luminescence, luciferase reporter (AID 651969); type: functional
[3] = target: T1, Small ubiquitin-related modifier 1 (Homo sapiens, UniProt P63165); assay: inhibitors of SUMO1 peptide binding, dose response, biochemical, fluorescence polarization, uHTS hits (AID 624382); type: functional; settings: read-out: IC50_Mean
T1 sequence (P63165 whole entry): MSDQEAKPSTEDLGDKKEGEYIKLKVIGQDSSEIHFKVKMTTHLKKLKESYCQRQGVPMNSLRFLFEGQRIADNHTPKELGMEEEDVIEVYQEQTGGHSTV

[4] = target: T1, Small ubiquitin-related modifier 1; assay: inhibitors of SUMO1 partner interactions, dose response, biochemical, FRET (AID 624383); type: functional; settings: read-out: IC50_Mean
[5] = target: T2, Replicative DNA helicase DnaB (Mycobacterium tuberculosis, UniProt P9WMR3); assay: DnaB intein splicing inhibitors, dose response, biochemical, cell-free fluorescence (AID 449749); type: functional
T2 sequence (P9WMR3 whole entry): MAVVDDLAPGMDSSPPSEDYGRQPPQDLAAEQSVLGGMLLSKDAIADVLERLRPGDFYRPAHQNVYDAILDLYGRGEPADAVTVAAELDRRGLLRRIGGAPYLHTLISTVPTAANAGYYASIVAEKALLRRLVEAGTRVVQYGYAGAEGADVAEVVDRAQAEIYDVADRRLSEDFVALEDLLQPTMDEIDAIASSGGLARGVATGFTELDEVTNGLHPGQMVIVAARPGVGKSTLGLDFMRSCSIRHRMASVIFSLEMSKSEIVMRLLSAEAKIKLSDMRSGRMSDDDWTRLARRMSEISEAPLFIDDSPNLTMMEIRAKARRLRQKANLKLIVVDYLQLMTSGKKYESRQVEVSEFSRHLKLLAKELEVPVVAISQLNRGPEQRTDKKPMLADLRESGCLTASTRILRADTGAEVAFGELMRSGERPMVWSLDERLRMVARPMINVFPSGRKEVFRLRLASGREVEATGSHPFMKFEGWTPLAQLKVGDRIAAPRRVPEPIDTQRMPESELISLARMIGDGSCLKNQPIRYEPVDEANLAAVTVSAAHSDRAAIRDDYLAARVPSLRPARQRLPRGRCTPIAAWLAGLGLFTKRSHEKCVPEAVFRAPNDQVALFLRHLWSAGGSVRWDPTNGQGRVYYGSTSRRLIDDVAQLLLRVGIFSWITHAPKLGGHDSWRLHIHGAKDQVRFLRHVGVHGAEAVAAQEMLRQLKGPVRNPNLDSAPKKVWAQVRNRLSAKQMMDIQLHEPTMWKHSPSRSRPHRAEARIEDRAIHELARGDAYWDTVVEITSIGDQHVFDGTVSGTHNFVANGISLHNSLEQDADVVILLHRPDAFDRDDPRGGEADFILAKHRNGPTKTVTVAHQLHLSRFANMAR

cells [6] = type: functional, cell-based
Paired box protein Pax-8 = Paired box protein Pax-8 (Homo sapiens, UniProt Q06710); assay: inhibitors of PAX8-driven TPO luciferase reporter, dose response, RMG-I cells, cherry-pick (AID 687027); type: functional, cell-based;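 also: luciferase reporter driven by Pax8 target thyroperoxidase promoter measured by SteadyGlo luminescence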
Sequence of Paired box protein Pax-8 (Q06710 whole entry): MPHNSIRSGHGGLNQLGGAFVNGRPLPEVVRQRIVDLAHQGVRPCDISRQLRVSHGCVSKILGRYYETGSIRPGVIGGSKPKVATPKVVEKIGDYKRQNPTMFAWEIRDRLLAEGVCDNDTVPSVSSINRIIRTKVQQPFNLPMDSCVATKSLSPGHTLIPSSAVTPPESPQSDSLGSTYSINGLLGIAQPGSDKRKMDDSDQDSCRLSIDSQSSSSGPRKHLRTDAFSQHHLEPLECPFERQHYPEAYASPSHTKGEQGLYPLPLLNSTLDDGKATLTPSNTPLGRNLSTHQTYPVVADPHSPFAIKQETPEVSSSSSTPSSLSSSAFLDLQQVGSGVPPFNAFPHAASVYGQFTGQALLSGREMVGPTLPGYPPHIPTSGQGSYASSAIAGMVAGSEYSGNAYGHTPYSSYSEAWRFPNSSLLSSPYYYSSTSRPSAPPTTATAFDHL

cells [7] = type: functional, cell-based; remark: listed apart in the source
Streptococcus = assay: Group A Streptococcus viability loss, dose response, counter-screen for streptokinase expression inhibitor project, luminescence, BacTiterGlo (AID 1915); type: functional, organism-based;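 also: potency for reduction of bacterial viability or growth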
BJ [8] = assay: cytotoxicity toward BJ-TERT fibroblasts, dose response, cell-based, RAS-independent, luminescence (AID 1933); type: functional; settings: Homo sapiens
[9] = target: Dual specificity tyrosine-phosphorylation-regulated kinase 1A (Rattus norvegicus, UniProt Q63470); type: biochemical, Homo sapiens
[10] = cytotoxicity toward DRD oncogenic fibroblasts, dose response, cell-based, non-viral oncogenic, luminescence (AID 1934); type: functional; settings: Homo sapiens
[11] = target: Photoreceptor-specific nuclear receptor (Homo sapiens, UniProt Q9Y5X4); type: functional, cell-based;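 also: CHO-S cells with Gal4-NCOR and VP16-NR2E3 two-hybrid luciferase reporter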
Sequence of Photoreceptor-specific nuclear receptor (Q9Y5X4 whole entry, the tested form may be a part): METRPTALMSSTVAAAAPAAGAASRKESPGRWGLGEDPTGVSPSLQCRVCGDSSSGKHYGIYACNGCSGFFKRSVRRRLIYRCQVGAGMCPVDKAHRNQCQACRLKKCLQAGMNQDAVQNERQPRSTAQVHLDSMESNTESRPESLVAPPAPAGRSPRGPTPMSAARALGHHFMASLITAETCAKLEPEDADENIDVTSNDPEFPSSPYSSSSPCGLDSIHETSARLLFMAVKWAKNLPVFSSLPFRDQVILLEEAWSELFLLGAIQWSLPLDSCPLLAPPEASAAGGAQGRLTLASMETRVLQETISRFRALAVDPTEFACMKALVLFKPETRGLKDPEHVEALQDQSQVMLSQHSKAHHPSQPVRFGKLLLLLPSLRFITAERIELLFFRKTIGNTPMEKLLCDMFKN

[12] = NIH-3T3 fibroblast cytotoxicity, dose response, cytotoxicity control, cell-based, fluorescence, Alamar Blue, secondary assay (AID 2327); type: functional;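 also: NIH-3T3 mouse fibroblasts cultured with fluconazole at 8 µg/mL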
BJ [13] = assay: cytotoxicity toward BJ-TERT-LT-ST fibroblasts, dose response, cell-based, RAS-independent, luminescence (AID 1935); type: functional; settings: Homo sapiens;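 also: BJ fibroblasts immortalized with TERT plus LT and ST oncogenes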
INS1 = assay: beta cell apoptosis inhibitors, cytokine rescue, dose response, luminescence, retest (AID 449756); type: functional, cell-based; settings: Rattus norvegicus;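 also: cell death triggered by IL-1 beta plus TNF-alpha plus IFN-gamma mixture; protective hits raise ATP signal compared with cytokine alone wells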
Nonstructural protein 1 = Nonstructural protein 1 (Influenza A virus, UniProt Q194T2); type: functional, Influenza A virus (A/California/07/2009(H1N1))
Sequence of Nonstructural protein 1 (Q194T2 whole entry): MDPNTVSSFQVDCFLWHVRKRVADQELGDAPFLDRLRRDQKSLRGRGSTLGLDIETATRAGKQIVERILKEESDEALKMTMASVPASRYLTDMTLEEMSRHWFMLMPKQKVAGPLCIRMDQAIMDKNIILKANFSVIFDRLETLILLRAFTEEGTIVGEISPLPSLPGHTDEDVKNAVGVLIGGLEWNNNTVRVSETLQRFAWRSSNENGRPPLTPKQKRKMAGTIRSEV

BJ [14] = assay: cells; type: functional, cell-based; settings: Homo sapiens
Protein RecA = target: T3, Protein RecA (Mycobacterium tuberculosis, UniProt P9WHJ3); assay: Fluorescence Cell-Free Homogeneous Dose Retest to Identify Inhibitors of RecA-Intein Splicing Activity. [Related pubchem assays (depositor defined):AID2097, AID2223, AID489010, AID492950]; type: functional
T3 sequence (P9WHJ3 whole entry): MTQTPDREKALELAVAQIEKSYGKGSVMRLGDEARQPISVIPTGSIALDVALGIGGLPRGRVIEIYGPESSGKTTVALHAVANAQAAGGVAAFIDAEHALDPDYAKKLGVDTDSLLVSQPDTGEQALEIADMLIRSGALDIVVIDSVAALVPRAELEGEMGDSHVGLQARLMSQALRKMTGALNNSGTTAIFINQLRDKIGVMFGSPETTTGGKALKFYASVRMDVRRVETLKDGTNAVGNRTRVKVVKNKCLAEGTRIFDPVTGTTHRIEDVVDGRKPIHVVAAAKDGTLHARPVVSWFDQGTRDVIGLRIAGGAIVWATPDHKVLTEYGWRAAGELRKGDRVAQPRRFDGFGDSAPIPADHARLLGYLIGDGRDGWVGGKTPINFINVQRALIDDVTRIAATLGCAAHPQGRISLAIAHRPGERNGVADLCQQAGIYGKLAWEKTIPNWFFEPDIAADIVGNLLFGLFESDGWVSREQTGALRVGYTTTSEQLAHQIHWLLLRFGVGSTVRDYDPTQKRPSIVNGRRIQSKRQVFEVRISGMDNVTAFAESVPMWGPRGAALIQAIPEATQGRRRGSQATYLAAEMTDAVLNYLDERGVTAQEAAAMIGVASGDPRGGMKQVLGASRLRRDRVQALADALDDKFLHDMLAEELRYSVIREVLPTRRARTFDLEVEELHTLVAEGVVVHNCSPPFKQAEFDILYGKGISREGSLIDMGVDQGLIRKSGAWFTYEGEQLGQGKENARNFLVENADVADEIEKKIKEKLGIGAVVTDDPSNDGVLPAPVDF

[15] = system: Streptococcus sp. 'group A'; assay: growth inhibition of control SK(-) GAS strain, dose response, counter-screen for streptokinase expression inhibitor project, luminescence, kanamycin, BacTiterGlo, confirmation (AID 1900); type: functional, organism-based
[16] = C. albicans growth with fluconazole, confirmation, fluorescence, retest (AID 2467); type: functional, cell-based
[17] = target: T4, Heat shock factor protein 1 (Mus musculus, UniProt P38532); assay: HSF1 potentiators in luciferase reporter cells, confirmation, cell-based, NIH3T3, luminescence, dose retest (AID 435004); type: functional;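 also: stress induced by proteasome inhibitor MG132 added 30 min after compound; luciferase reporter driven by HSF1 response element in NIH3T3 cells; actives raise luminescence as potentiators of the MG132 stress response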
T4 sequence (P38532 whole entry): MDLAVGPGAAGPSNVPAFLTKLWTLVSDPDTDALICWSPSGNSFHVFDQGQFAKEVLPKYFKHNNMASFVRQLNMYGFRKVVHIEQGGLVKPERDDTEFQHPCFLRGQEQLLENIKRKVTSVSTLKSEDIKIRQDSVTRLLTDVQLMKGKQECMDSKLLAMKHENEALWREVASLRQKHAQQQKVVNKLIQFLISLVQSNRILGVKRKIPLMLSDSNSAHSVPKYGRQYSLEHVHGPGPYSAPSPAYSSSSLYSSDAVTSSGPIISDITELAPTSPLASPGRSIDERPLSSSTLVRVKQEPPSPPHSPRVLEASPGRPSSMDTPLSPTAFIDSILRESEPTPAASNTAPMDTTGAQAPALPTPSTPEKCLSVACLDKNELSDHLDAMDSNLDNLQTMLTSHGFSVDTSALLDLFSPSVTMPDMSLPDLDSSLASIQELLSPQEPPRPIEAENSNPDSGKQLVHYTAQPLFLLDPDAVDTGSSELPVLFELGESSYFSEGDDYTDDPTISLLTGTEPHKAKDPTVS

[18] = A549 cell cytotoxicity, dose response, cytotoxicity control, plate reader, cherry-pick, antagonist series (AID 743412); type: functional, cell-based
[19] = HepG2 cell cytotoxicity, dose response, cytotoxicity control, plate reader, cherry-pick, antagonist series (AID 743416); type: functional, cell-based
Galanin receptor type 3 = target: T5, Galanin receptor type 3 (Homo sapiens, UniProt O60755); assay: Fluorescence-based cell-based primary high throughput dose response assay to identify antagonists of the Galanin Receptor 3 (GalR3).; type: functional
T5 sequence (O60755 whole entry): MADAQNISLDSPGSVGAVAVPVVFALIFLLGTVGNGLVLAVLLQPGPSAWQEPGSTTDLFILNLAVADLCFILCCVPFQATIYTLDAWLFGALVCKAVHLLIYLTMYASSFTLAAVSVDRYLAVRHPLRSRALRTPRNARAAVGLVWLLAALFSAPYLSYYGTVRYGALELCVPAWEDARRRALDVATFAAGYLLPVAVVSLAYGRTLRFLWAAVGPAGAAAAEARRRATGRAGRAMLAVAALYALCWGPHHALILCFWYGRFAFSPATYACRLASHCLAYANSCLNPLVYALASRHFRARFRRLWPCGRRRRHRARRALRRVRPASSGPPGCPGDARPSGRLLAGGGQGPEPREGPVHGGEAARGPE

cells [20] = type: functional, cell-based; settings: HEK-CNG
[21] = target: T6, COUP transcription factor 2 (Homo sapiens, UniProt P24468); assay: Luminescence-based cell-based high throughput dose response assay to identify inhibitors of COUP-TFII (NR2F2).; type: functional;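 also: HEK293 cells transiently cotransfected with COUP-TFII expression vector and reporter; luciferase reporter luminescence driven by COUP-TFII from the pX2-168 reporter plasmid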
T6 sequence (P24468 whole entry): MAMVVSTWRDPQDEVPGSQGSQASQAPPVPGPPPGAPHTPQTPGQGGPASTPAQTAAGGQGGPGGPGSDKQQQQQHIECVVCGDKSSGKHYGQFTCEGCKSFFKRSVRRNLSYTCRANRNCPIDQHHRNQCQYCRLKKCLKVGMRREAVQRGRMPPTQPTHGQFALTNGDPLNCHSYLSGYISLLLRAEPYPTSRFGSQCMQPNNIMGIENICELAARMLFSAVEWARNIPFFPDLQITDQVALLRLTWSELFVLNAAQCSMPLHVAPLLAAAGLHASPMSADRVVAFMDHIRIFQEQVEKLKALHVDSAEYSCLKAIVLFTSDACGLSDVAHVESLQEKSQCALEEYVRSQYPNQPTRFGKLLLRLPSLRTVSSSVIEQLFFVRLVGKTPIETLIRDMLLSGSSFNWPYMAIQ

[22] = LGR2 antagonists, dose response, cell-based, HEK293, CRE-luciferase reporter, cherry pick, set 2 (AID 743343); type: functional;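 also: transfected cells were stimulated with diluted bursicon conditioned medium after compound addition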
[23] = MC4R antagonists, dose response, counter-screen for LGR2 antagonist project, cell-based, plate reader, cherry pick (AID 743444); type: functional;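 also: transfected HEK 293 cells stimulated with alpha-MSH peptide; potency of inhibitors of the alpha-MSH evoked signal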

Sequence of Nuclear receptor subfamily 5 group A member 2 (O00482 whole entry): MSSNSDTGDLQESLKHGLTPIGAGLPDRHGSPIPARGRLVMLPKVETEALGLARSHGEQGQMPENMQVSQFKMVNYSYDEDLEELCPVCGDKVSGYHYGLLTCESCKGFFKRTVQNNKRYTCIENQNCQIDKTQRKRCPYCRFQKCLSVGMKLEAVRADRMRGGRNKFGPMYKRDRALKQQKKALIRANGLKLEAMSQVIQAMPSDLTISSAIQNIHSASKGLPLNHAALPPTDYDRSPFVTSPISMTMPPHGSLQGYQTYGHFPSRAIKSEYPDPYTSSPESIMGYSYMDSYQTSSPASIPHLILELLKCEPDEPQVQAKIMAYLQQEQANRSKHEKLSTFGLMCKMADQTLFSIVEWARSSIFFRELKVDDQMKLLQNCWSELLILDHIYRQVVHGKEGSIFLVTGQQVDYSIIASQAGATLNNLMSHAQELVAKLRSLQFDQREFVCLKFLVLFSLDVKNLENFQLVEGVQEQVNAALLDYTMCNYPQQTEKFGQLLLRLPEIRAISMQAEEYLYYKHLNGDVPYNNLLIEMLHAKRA

## CCOc1ccc(NC(=O)COC(=O)CC2CCCCC2)cc1
[1]
  IC50: 35.9 µM (inactive)
Steroidogenic factor 1
  IC50: 35.9 µM (inactive)
[2]
  IC50: 35.9 µM (inactive)

## CC(=O)c1cccc(NC(=O)c2cccc(N3C(=O)c4ccccc4C3=O)c2)c1
[3]
  IC50: > 66.6 µM (inactive)
[4]
  IC50: 8.03 µM (active)

## Oc1[nH]c2ccc(Br)cc2c1N=NC(=S)N1CCOCC1
[5]
  AC50: > 380 µM (inactive)
Cells [6]
  EC50: > 350 µM (not active)
Paired box protein Pax-8
  AC50: 1.55 µM (active)
Cells [7]
  EC50: 137 µM (active)
Streptococcus
  EC50: 0.167 µM (active)
BJ [8]
  EC50: 1.81 µM (inconclusive)
[9]
  AC50: 7.39 µM (active)
[10]
  EC50: 7.46 µM (inconclusive)
[11]
  IC50: 1.81 µM (active)
[12]
  EC50: > 150 µM (inconclusive)
BJ [13]
  EC50: 5.1 µM (inconclusive)
INS1
  AC50: 1.6 µM (active)
Nonstructural protein 1
  IC50: 19.9 µM (active)
BJ [14]
  EC50: 12.8 µM (inconclusive)
Protein RecA
  EC50: 22.7 µM (active)
[15]
  EC50: < 0.06 µM (active)
[16]
  EC50: 3.18 µM (active)
[17]
  EC50: > 260 µM (inactive)

## O=C(CCS(=O)(=O)c1ccc(Br)cc1)N1CCCCCC1
[3]
  IC50: > 66.6 µM (inactive)
[4]
  IC50: 13 µM (active)

## Cc1ccnc(Nc2nc(-c3sc(C)nc3C)cs2)c1
[18]
  AC50: 25.3 µM (active)
[19]
  AC50: 10.4 µM (active)
Galanin receptor type 3
  IC50: > 30 µM (inactive)
Cells [20]
  EC50: > 30 µM (inactive)
[21]
  IC50: 12.6 µM (inactive)
[22]
  AC50: 17.6 µM (active)
[23]
  AC50: 33.5 µM (active)
